In PubChem BioAssay (NCI):
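Compound exposure: 48 hours, 5 concentrations, 96-well plates. The concentration for full growth arrest is given as TGI.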

Experiments:
Test in all cases: NCI-60 cell line screen, 48 h
NCI-H23 lung = system: NCI-H23 lung
CAKI-1 renal = system: CAKI-1 renal
SF-268 CNS = system: SF-268 CNS
HOP-62 NSCLC = system: HOP-62 NSCLC
LOX IMVI melanoma = system: LOX IMVI melanoma
SK-MEL-28 melanoma = system: SK-MEL-28 melanoma
SN12C renal = system: SN12C renal
NCI-H226 lung = system: NCI-H226 lung
HCC-2998 colon = system: HCC-2998 colon
SF-539 CNS = system: SF-539 CNS
SR leukemia = system: SR leukemia
KM12 colon = system: KM12 colon
MOLT-4 leukemia = system: MOLT-4 leukemia
NCI-H522 lung = system: NCI-H522 lung
SK-OV-3 ovarian = system: SK-OV-3 ovarian
NCI-H460 lung = system: NCI-H460 lung
MDA-MB-231 breast = system: MDA-MB-231 breast

Row | Compound | TGI (NCI-H23 lung) [µM] | TGI (CAKI-1 renal) [µM] | TGI (SF-268 CNS) [µM] | TGI (HOP-62 NSCLC) [µM] | TGI (LOX IMVI melanoma) [µM] | TGI (SK-MEL-28 melanoma) [µM] | TGI (SN12C renal) [µM] | TGI (NCI-H226 lung) [µM] | TGI (HCC-2998 colon) [µM] | TGI (SF-539 CNS) [µM] | TGI (SR leukemia) [µM] | TGI (KM12 colon) [µM] | TGI (MOLT-4 leukemia) [µM] | TGI (NCI-H522 lung) [µM] | TGI (SK-OV-3 ovarian) [µM] | TGI (NCI-H460 lung) [µM] | TGI (MDA-MB-231 breast) [µM]
1 | CCOc1ccccc1Nc1nc(C)c(C(=O)CC(=O)C(=O)Nc2ccccc2)s1 | > 100 | > 100 | > 100 | > 100 | > 100 | > 100 | > 100 | > 100 | > 100 | > 100 | > 100 | > 100 | 78.3 | 84.8 | > 100 | > 100 | 
2 | O=c1[nH]c2cccccc-2c1-c1nc2ccccc2[nH]1 | > 100 | > 100 | 45.3 | 94.8 | > 100 | 70.5 | > 100 | 35.6 | > 100 | 54.3 | > 100 | > 100 |  | 42.3 | 51.2 |  | 
3 | COc1cc2c(oc(=O)c3c4oc([Si](C)(C)C)cc4cc(OC)c23)c2cccc(O)c12 | > 100 | > 100 | > 100 | > 100 | > 100 | > 100 | > 100 | > 100 | > 100 | > 100 | > 100 | > 100 | > 100 | > 100 | > 100 | > 100 | 
4 | COc1ccc(C2Oc3cc(OC)c(O)cc3[C@@H]2C)cc1 (stereo not given in full) | > 100 | 96.2 | > 100 | > 100 | 27.9 | > 100 |  | 92.6 | > 100 | > 100 |  | > 100 | 42.8 | 38 | > 100 | > 100 | 
5 | N#Cc1c(C#N)c(-c2ccco2)n(/N=C/c2ccco2)c1N | > 100 | > 100 | > 100 | > 100 | > 100 |  | > 100 | 66.2 | > 100 | > 100 | > 100 | > 100 | > 100 | > 100 | > 100 | > 100 | 36.3
6 | CCN(CC)CC(C(=O)Nc1c(C)cccc1C)/C(C)=N/NC(N)=S (stereo not given) | > 100 |  | > 100 | > 100 | > 100 | > 100 |  | > 100 | > 100 | > 100 |  | > 100 | > 100 | > 100 | > 100 | > 100 | 
7 | CC(C)(C)OC(=O)N(CCCN)CCCCN(CCCN)C(=O)OC(C)(C)C | > 100 | > 100 | > 100 | > 100 | > 100 | > 100 |  | > 100 | > 100 | > 100 | > 100 | > 100 | > 100 | > 100 | > 100 | > 100 | 
8 | CC1=C2CC3=C(C)C(=O)O[C@H]3C[C@@H](C)[C@@H]2CC1 | > 100 | > 100 | > 100 |  | > 100 | > 100 |  | > 100 | > 100 |  | > 100 | > 100 | > 100 |  | > 100 | > 100 | > 100
9 | CC1CCCC2(O1)OC1CC(=O)OC1C1=C2C(=O)c2ccccc2C1=O (stereo not given) | 19.7 | 7.13 | 14.9 | 30.2 | 9.29 | 4.75 | 4.77 | 4.51 | 8.7 | 19.9 |  | 31.7 | 4.09 | 3.65 | 30 | 67.2 | 
10 | Cc1ccc(-c2c(C#N)c(O)n(NS(=O)(=O)c3ccccc3)c(=O)c2C#N)cc1 |  | > 100 | > 100 | > 100 | > 100 | > 100 | > 100 | > 100 | > 100 | > 100 |  | > 100 | > 100 | > 100 | > 100 | > 100 | > 100
11 | CC(C)(C)C(=O)Cc1cc2c(cc1C(=O)O)S(=O)(=O)NC(C(C)(C)C)=C2 | > 100 | > 100 | > 100 | > 100 |  | > 100 | > 100 | > 100 |  |  | > 100 | > 100 | > 100 | > 100 | > 100 | > 100 | 
12 | Clc1ccc(CCn2ccc3ccccc32)c(Cl)c1 | > 100 | > 100 | > 100 | > 100 |  |  | > 100 | > 100 | > 100 | > 100 | > 100 | > 100 | > 100 | > 100 | > 100 | > 100 | > 100
